Test: Titration of lipophilic capsule contents (placebo) with water until emulsification (robustness)
Format: physicochemical
Settings: placebo capsule contents after the 5 w/w addition of the emulsion stabilizer; titrated with water at room temperature until clear oily liquid turns into milky turbid emulsion
From the text: The resistance of the contents of gelatin capsules to the water passing inside was quantified by performing a titration experiment. While stirring constantly using a magnetic stirrer at room temperature, the lipophilic contents intended for capsules was gradually titrated with water until the clear oily liquid begins to change into a milky turbid emulsion.
The robustness of the contents was expressed in the following table as an amount of water, in % w/w, necessary to induce emulsification of the contents.

| Molecule | Robustness (amount of water necessary to induce emulsification of the contents) [weight %] |
| --- | --- |
| CCCCC/C=C\C/C=C\CCCCCCCC(=O)OCC(O)CO (stereo not drawn) [Glyceryl monolinoleate] | 3.23 |
| CCCCCCCC/C=C\CCCCCCCC(=O)OCC(O)CO (stereo not drawn) [Glyceryl monooleate] | 4.98 |
| Decaglyceryl decaoleate | 0.85 |
| Decaglyceryl monolaurate | 0.84 |
| Decaglyceryl monooleate | 1.02 |
| Diglyceryl monooleate | 1.68 |
